Like-named read-outs stand apart in the source and are kept apart here.
Legend:
dopamine D2 receptor = target: T1, dopamine D2 receptor (Mus musculus, UniProt P61168); assay: Radioligand binding assay of dopamine D2 receptor binding sites in striatum; details: mean ± s.e.m., read-out: KD (dissociation constant between ligand and receptor)
T1 construct: from tissue; host or cells: striatum of homozygous transgenic (TgX15, chakragati) mice and normal heterozygous litter-mates
Protocol: Radioligand binding assays were performed to analyze the density of dopamine D2 receptor binding sites in the striatum of mice of the present invention and normal heterozygous mice. […] The density of dopamine D2 binding sites are assayed by the ability of the striata to maximally bind ^[MUT]-methylspiperone (Bmax). Dissociation constants (KD) between the ligand and receptor were also measured.

chakragati mice = assay: Effect of apomorphine treatment on chakragati mice; assay type: in vivo, mouse; details: chakragati mice versus normal control mice
6-OHDA-lesioned rodents = details: cited from earlier work
[1] = rats unilaterally depleted of dopamine by 6-hydroxydopamine lesions (Ungerstedt 1971)

T1 sequence (P61168 whole entry): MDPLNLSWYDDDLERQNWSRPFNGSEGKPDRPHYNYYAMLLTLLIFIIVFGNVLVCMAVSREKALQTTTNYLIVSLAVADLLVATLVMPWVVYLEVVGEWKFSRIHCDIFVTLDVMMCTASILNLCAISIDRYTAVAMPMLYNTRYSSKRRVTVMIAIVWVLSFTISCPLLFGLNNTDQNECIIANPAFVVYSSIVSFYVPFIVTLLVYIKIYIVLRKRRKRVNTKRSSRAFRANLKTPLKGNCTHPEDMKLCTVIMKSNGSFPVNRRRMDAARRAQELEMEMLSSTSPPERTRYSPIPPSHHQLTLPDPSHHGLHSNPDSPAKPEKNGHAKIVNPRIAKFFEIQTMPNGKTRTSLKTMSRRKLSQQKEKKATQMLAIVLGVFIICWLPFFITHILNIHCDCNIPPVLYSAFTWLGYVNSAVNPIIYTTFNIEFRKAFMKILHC

Compound	Kd (dopamine D2 receptor; striata of heterozygous litter-mates) [nM]	Kd (dopamine D2 receptor; striata of homozygous transgenic mice) [nM]	Effect of treatment on chakragati mice compared to normal control mice (circling) (chakragati mice)	Circling behavior elicited (6-OHDA-lesioned rodents; 6-OHDA-lesioned rodents)	Circling behavior elicited (6-OHDA-lesioned rodents; [1])
CN1CN(c2ccccc2)C2(CCN(CCCC(=O)c3ccc(F)cc3)CC2)C1=O [^3 H-N-methylspiperone]	0.073 ± 0.008	0.081 ± 0.013	–	–	–
CN1CCc2cccc3c2[C@H]1Cc1ccc(O)c(O)c1-3 [apomorphine]	–	–	not significantly differ compared to the normal control mice	elicits robust circling behavior	high rates of circling behavior can be elicited
CC(N)Cc1ccccc1 (stereo not drawn) [amphetamine]	–	–	–	–	high rates of circling behavior can be elicited
